This note sets out measurements from US20120157396A1, “PYRAZINAMIDE FOR IMMUNOSTIMULATION AND THE TREATMENT OF LEISHMANIASES” (priority 2009, published 2012).

The term MIC denotes the smallest concentration in the dilution series that meets the test's criterion for growth inhibition. The MIC50 is an inhibitory concentration at the 50% level, which refers to growth in some studies and to a panel of isolates in others.

Read-outs that look alike come from different tables or passages of the source.

One assay has as its system L. major amastigotes. Description: L. major amastigotes within J774 cells, parasite survival. The assay is classed as cell-based. The settings on record: for MIC50: Leishmania major. On the procedure: To distinguish between leishmaniostatic and leishmanicidal effects, a time course survival curve was generated for J774 cultures infected with L. major.
Amastigotes were generated by infecting J774 murine macrophages. Infections were carried after seeding cells in 8-well Labtek chambers (Thermo Physic Scientific, Rochester N.Y.) at a concentration of 5×10^4 cells/well. To avoid multiplication, cells were incubated with mitomycin C at a concentration of 0.8 μg/ml for 16 h. Infective-stage promastigotes (metacyclics) of L. major were isolated from stationary cultures (4-5 day-old) by Ficoll enrichment, added to macrophage cultures (5 promastigotes: 1 cell) and kept overnight at 37° C. in the presence of 5% CO2 and DMEM with 10% FCS. Sixteen hours later, non-internalized promastigotes were then washed and replaced by culture medium containing the drug. Forty-eight hours later, wells were detached from the slides, stained with Diff-Quick (Dade Behring, Newark, Del.) and counted under light microscope. Parasite burden was determined by observation under light microscopy (1000×) as the number of amastigotes per one hundred J774 cells. Percentage of survival of amastigotes and MIC50 were calculated as above.

The test system of another assay is J774 cells. Put plainly: J774 cell activation, surface markers by flow cytometry. In kind it is cell-based, murine. The settings on record: 10 and 100 μM, with or without L. major. On the procedure:
Because of the strong in vivo effect of PZA, we studied the effect of treatment on macrophages. First, we looked at activation markers and cytokine secretion by J774 cells (a murine macrophage cell line) following treatment with PZA (10 and 100 μM) in the presence or absence of L. major infection (1:5 macrophage:parasite ratio) were examined. As a positive control, cells were exposed to a mixture of IFN-γ and LPS, known to increase the level of activation. Expression of surface molecules was determined in unstimulated cells, and on infected, untreated cultures. Twenty-four hours after infection and/or treatment, cells were collected and stained with fluorescent antibodies against the co-stimulatory molecules CD80 and CD86, as well as MHC Class II, and analyzed by flow cytometry.
J774 cells or bone marrow-derived cells were seeded onto 24-well plates at a concentration of 5×10^5 cells/ml. Twenty-four hours later, PZA was added to the wells at different concentrations in the absence or presence of L. major (1:5 parasite ratio). In some experiments, J774 cells were treated with amphotericin B (0.1, 0.5, or 1 μg/ml). […] For each sample, at least 50,000 cells were analyzed. The data were collected and analyzed using CELLQuest software and a FACScalibur flow cytometer (Becton Dickinson, San Jose, Calif.).

Assay [1] relates to bone marrow-derived macrophages. Description: Cytokine and NO production in bone marrow-derived macrophages. In kind it is cell-based, C57BL/6 mice. Also noted: unit not given here. The settings on record: macrophage, drug 100 μM. On the procedure:
(§1) Bone marrow cells were obtained and were grown in the presence of the cytokines M-CSF or GM-CSF to induce differentiation of macrophages or dendritic cells, respectively. The study of the immune response of dendritic cells was included because of their importance for the initiation of the immune response against L. major. […] Again, this effect was rescued by the treatment of macrophages with compounds of formula I, namely, either PZA or 5-Cl PZA.
(§2) Parasite and cell culture. L. major clone V1 (MHOM/IL/80/Friedlin) promastigotes were grown at 26° C. in medium 199 supplemented with 20% heat-inactivated fetal calf serum (FCS, Gemini, Sacramento), 100 U/ml penicillin, 100 μg/ml streptomycin, 2 mM L-glutamine, 40 mM Hepes, 0.1 mM adenine (in 50 mM Hepes) and […] hemin (in 50% triethanolamine). The macrophage murine cell line J774 (Cat. No. TIB-67TM) was cultured in DMEM (Sigma-Aldrich, St. Louis, Mo.) with 10% FCS, 100 U/ml penicillin, 100 μg/ml streptomycin and 2 mM glutamine (Sigma-Aldrich) at 37° C. under 5% CO2 atmosphere. Culture medium was changed twice per week. Subcultures were performed when monolayers covered 90% of the bottom of culture flasks. For experiments involving macrophages and dendritic cells, bone marrow was obtained from C57BL/6 mouse femurs and grown for 6-8 days in RPMI 1640 supplemented as above in the presence of 10% L929 conditioned medium (to generate macrophages) or 20 ng/ml GM-CSF (to generate dendritic cells).
(§3) J774 cells or bone marrow-derived cells were seeded onto 24-well plates at a concentration of 5×10^5 cells/ml. Twenty-four hours later, PZA was added to the wells at different concentrations in the absence or presence of L. major (1:5 parasite ratio). In some experiments, J774 cells were treated with amphotericin B (0.1, 0.5, or 1 μg/ml). Two control groups were also included in this experiment: a positive control of activation consisting in a group of uninfected cells treated with 100 ng/ml LPS and 10 IU IFN-γ as a positive control of activation, and a negative control of activation, consisting in uninfected, untreated cells. Cell cultures were maintained overnight, and then cultured for an additional 6 h with brefeldin A (10 μg/ml), harvested by scraping and fixed in 2% paraformaldehyde. Prior to staining, cells were incubated with an anti-Fc III/II receptor and 10% normal mouse serum (NMS) in PBS containing 0.1% BSA, 0.01% NaN3. Cells were permeabilized with saponin and stained for the surface markers CD80 (clone 16-10A1), CD86 (clone GL1), MHCI (clone 28-14-8), MHCII (clone M5/114.15.2) and for the cytokines IL-12p40/p70 (clone C17.8) and IL-10 (clone JESS-16E3). Incubations were carried out for 30 min on ice. All antibodies were purchased from BD Biosciences or eBioscience. For each sample, at least 50,000 cells were analyzed. The data were collected and analyzed using CELLQuest software and a FACScalibur flow cytometer (Becton Dickinson, San Jose, Calif.).

In assay [2] the test system is bone marrow-derived dendritic cells. Put plainly: Cytokine and NO production in bone marrow-derived dendritic cells. The assay is classed as cell-based, C57BL/6 mice. Also noted: unit not given here. The settings on record: dendritic cell, drug 100 μM. On the procedure:
as §1, §2, §3

Another assay deals with Leishmania. Put plainly: J774 cells infected with old- and new-world Leishmania species, 48 hr post treatment. In kind it is cell-based. The text has this: FIG. 8. Effect of PZA on J774 cells infected with Leishmania 48 hr post treatment. Data expressed as % survival compared to untreated control (100% survival). Mean±SD of 3 independent determinations.
FIG. 9. A. Effect of 5-Chloro PZA on J774 cells infected with Leishmania, 48 hr post treatment. Data expressed as % survival compared to untreated control (100% survival). Mean±SD of 3 independent determinations. […] B. Cytokine IL-2 production—5-Chloro PZA stimulated 2× more proinflammatory cytokines than PZA, even in Leishmania-infected macrophages (similar results with IFNγ, TNFα, NO).

For assay [3], the system named is bone marrow-derived macrophages. Put plainly: Cytokine and NO production in bone marrow-derived macrophages. In kind it is cell-based, C57BL/6 mice. More on the design: unit not given here. The conditions noted are these: macrophage, drug 100 μM. The source holds these as a separate data set.
The test system of assay [4] is bone marrow-derived dendritic cells. Description: Cytokine and NO production in bone marrow-derived dendritic cells. The assay is classed as cell-based, C57BL/6 mice. More on the design: unit not given here. The conditions noted are these: dendritic cell, drug 100 μM. This is another data set of the same source.

As for `NC(=O)c1cnc(Cl)cn1` [5-Cl PZA, 5-chloro pyrazinamide], in the assay on L. major amastigotes (L. major amastigotes within J774 cells), the “MIC50 reduced relative to PZA” value came out at 5 fold. Moreover, the “MIC50 for PZA analogs” value in the assay on L. major amastigotes (L. major amastigotes within J774 cells (Table Ia)) is on record as 2.1 μM. The “expression of costimulatory molecules CD80, CD86 and MHC Class II” value in the assay with J774 cells is given as “enhanced”. The IL-10 production is on record as 499 ± 312 in assay [1] (infected with L. major (Lm)), 415 ± 210 in assay [1] (uninfected), 342 ± 398 in assay [2] (infected with L. major (Lm)) and 265 ± 213 in assay [2] (uninfected). For the same compound, the IL-12 production in assay [1] (infected with L. major (Lm)) came to 1821 ± 645; in assay [1] (uninfected) it was 1767 ± 526; in assay [2] (infected with L. major (Lm)), 2121 ± 945; in assay [2] (uninfected), 1962 ± 765. Besides, the “activity at killing leishmanial species relative to PZA” value in the assay on Leishmania (old- and new-world leishmanial species in J774 cells) turned out to be 10 fold. Further, the MIC in the assay on Leishmania (variety of old- and new-world leishmanial species in J774 cells, 48 hr) is 1 to 13 µM. The NO production is given as 1599 ± 812 in assay [3] (infected with L. major (Lm)), 1145 ± 721 in assay [3] (uninfected), 876 ± 172 in assay [4] (infected with L. major (Lm)) and 745 ± 211 in assay [4] (uninfected). The TNF-α production in assay [3] (infected with L. major (Lm)) turned out to be 1928 ± 444; in assay [3] (uninfected) it was 1598 ± 542; in assay [4] (infected with L. major (Lm)), 2986 ± 566; in assay [4] (uninfected), 17684 ± 678.

As to `NC(=O)c1cnccn1` [PZA, pyrazinamide], in the assay on L. major amastigotes (48 hours post infection), the “increase in MIC50 of amastigotes versus promastigotes” value came to 10 fold. Moreover, the MIC50 with L. major amastigotes (48 h, amastigote in J774, 48 h, read-out: MIC50) worked out at 10.2 µg/mL; in the assay on L. major amastigotes (L. major amastigotes within J774 cells (Table Ia), read-out: MIC50 for PZA analogs), 9.5 µM. The “percentage of survival compared to untreated control” value in the assay with L. major amastigotes (amastigote in J774, PZA 1 μg/ml, 48 h) was 89 ± 12%; with L. major amastigotes (amastigote in J774, PZA 12.5 μg/ml, 48 h) it was 47 ± 12%; in the assay with L. major amastigotes (amastigote in J774, PZA 100 μg/ml, 48 h) it was 23 ± 10%; with L. major amastigotes (amastigote in J774, PZA 1000 μg/ml, 48 h) it was 20 ± 15%. In addition, the “expression of costimulatory molecules CD80, CD86 and MHC Class II” value with J774 cells is “increased expression”. Moreover, the IL-10 production worked out at 199 ± 120 in assay [1] (infected with L. major (Lm)), 155 ± 21 in assay [1] (uninfected), 203 ± 60 in assay [2] (infected with L. major (Lm)) and 185 ± 63 in assay [2] (uninfected). Besides, the IL-12 production in assay [1] (infected with L. major (Lm)) turned out to be 921 ± 445; in assay [1] (uninfected), 867 ± 546; in assay [2] (infected with L. major (Lm)), 1035 ± 785; in assay [2] (uninfected), 956 ± 145. Besides, in the assay on Leishmania (J774 cells infected with Leishmania, 48 hr post treatment (FIG. 8)), the “killing of Leishmania species” value was “killed old-world and new-world VL leishmanial species”. Moreover, the NO production was 699 ± 112 in assay [3] (infected with L. major (Lm)), 543 ± 221 in assay [3] (uninfected), 699 ± 612 in assay [4] (infected with L. major (Lm)) and 545 ± 221 in assay [4] (uninfected). In addition, the TNF-α production in assay [3] (infected with L. major (Lm)) was 921 ± 345; in assay [3] (uninfected), 758 ± 246; in assay [4] (infected with L. major (Lm)) it was 1856 ± 125; in assay [4] (uninfected), 1654 ± 546.
